Assay results from patent US10517889B2, “Modulators of SMAD7 expression” (Ionis Pharmaceuticals, Inc., priority 2017, dated 2019).
Strand notation (5' to 3'): a small letter for the sugar, then the base; units joined by * are phosphorothioate-linked, units joined directly phosphodiester-linked; [ ] holds rarer units or linkages, { } end groups; capitals alone tell only the bases. k = constrained ethyl (cEt); [5mC] = 5-methylcytosine; d = 2'-deoxy (DNA)

Test system: human SMAD7 mRNA
Experiment: Antisense inhibition of human SMAD7 mRNA expression in Hep3B cells by 3-10-3 cEt gapmers, 10,000 nM, electroporation (Example 2)
Type: cell-based
Details: Hep3B cells, electroporation with 10,000 nM antisense oligonucleotide, approximately 24 hours, SMAD7 mRNA by RT-PCR (RTS5062), relative to untreated control cells
How it was run: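 SMAD7 mRNA was measured by real-time PCR (RTS5062) with RiboGreen total-RNA normalization, about 24 h after 10,000 nM gapmer was delivered by electroporation into Hep3B cells at 20,000 per well. Gapmers were 16-mer 3-10-3 cEt, fully phosphorothioate; values are % inhibition versus untreated controls.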

**Q.** Which “% Inhibition” value does the source give for “830108 (kT*kT*k[5mC]*dA*dT*dT*dA*dA*dG*d[5mC]*d[5mC]*d[5mC]*dG*k[5mC]*kT*k[5mC]; antisense) [compound 830108]” here?
**A.** 54%

**Q.** “830109 (kA*kT*kT*d[5mC]*dA*dT*dT*dA*dA*dG*d[5mC]*d[5mC]*d[5mC]*kG*k[5mC]*kT; antisense) [compound 830109]” was tested. Which “% Inhibition” value did it give?
**A.** 44%

**Q.** How did the “% Inhibition” value turn out when “830110 (k[5mC]*k[5mC]*kA*dT*dT*d[5mC]*dA*dT*dT*dA*dA*dG*d[5mC]*k[5mC]*k[5mC]*kG; antisense) [compound 830110]” was run?
**A.** 36%

**Q.** Which “% Inhibition” value does the source give for “830111 (k[5mC]*k[5mC]*k[5mC]*dA*dT*dT*d[5mC]*dA*dT*dT*dA*dA*dG*k[5mC]*k[5mC]*k[5mC]; antisense) [compound 830111]” here?
**A.** 38%

**Q.** For “830112 (kG*k[5mC]*k[5mC]*d[5mC]*d[5mC]*dA*dT*dT*d[5mC]*dA*dT*dT*dA*kA*kG*k[5mC]; antisense) [compound 830112]”, which “% Inhibition” value is on record?
**A.** 23%

**Q.** For “830113 (kA*kG*k[5mC]*d[5mC]*d[5mC]*d[5mC]*dA*dT*dT*d[5mC]*dA*dT*dT*kA*kA*kG; antisense) [compound 830113]”, which “% Inhibition” value is on record?
**A.** 36%

**Q.** With “830114 (kG*kA*kG*d[5mC]*d[5mC]*d[5mC]*d[5mC]*dA*dT*dT*d[5mC]*dA*dT*kT*kA*kA; antisense) [compound 830114]” as the substance, how does the “% Inhibition” value read?
**A.** 22%

**Q.** With “830115 (kA*k[5mC]*k[5mC]*d[5mC]*dT*dA*dA*dA*d[5mC]*dT*dG*dA*dG*k[5mC]*k[5mC]*k[5mC]; antisense) [compound 830115]” as the substance, how does the “% Inhibition” value read?
**A.** 9%

**Q.** “830116 (k[5mC]*kA*k[5mC]*d[5mC]*d[5mC]*dT*dA*dA*dA*d[5mC]*dT*dG*dA*kG*k[5mC]*k[5mC]; antisense) [compound 830116]” was tested. Which “% Inhibition” value did it give?
**A.** 11%

**Q.** For “830117 (k[5mC]*k[5mC]*kA*d[5mC]*d[5mC]*d[5mC]*dT*dA*dA*dA*d[5mC]*dT*dG*kA*kG*k[5mC]; antisense) [compound 830117]”, which “% Inhibition” value is on record?
**A.** 5%

**Q.** “830118 (kT*k[5mC]*k[5mC]*d[5mC]*dA*d[5mC]*d[5mC]*d[5mC]*dT*dA*dA*dA*d[5mC]*kT*kG*kA; antisense) [compound 830118]” was tested. Which “% Inhibition” value did it give?
**A.** 0%

**Q.** How did the “% Inhibition” value turn out when “830119 (k[5mC]*k[5mC]*kG*dA*d[5mC]*d[5mC]*dT*dT*d[5mC]*d[5mC]*dT*d[5mC]*d[5mC]*k[5mC]*kA*k[5mC]; antisense) [compound 830119]” was run?
**A.** 24%

**Q.** Which “% Inhibition” value does the source give for “830120 (kG*k[5mC]*k[5mC]*dG*dA*d[5mC]*d[5mC]*dT*dT*d[5mC]*d[5mC]*dT*d[5mC]*k[5mC]*k[5mC]*kA; antisense) [compound 830120]” here?
**A.** 27%

**Q.** How did the “% Inhibition” value turn out when “830123 (antisense kG*kG*k[5mC]*dA*d[5mC]*d[5mC]*dA*d[5mC]*dA*dT*dT*dT*dT*k[5mC]*kA*k[5mC]) [compound 830123]” was run?
**A.** 44%

**Q.** “830124 (antisense k[5mC]*k[5mC]*kG*dA*dG*dG*d[5mC]*dA*d[5mC]*d[5mC]*dA*d[5mC]*dA*kT*kT*kT) [compound 830124]” was tested. Which “% Inhibition” value did it give?
**A.** 27%

**Q.** Which “% Inhibition” value does the source give for “830125 (antisense kT*k[5mC]*k[5mC]*dG*dA*dG*dG*d[5mC]*dA*d[5mC]*d[5mC]*dA*d[5mC]*kA*kT*kT) [compound 830125]” here?
**A.** 46%

**Q.** “830126 (antisense k[5mC]*kT*k[5mC]*d[5mC]*dG*dA*dG*dG*d[5mC]*dA*d[5mC]*d[5mC]*dA*k[5mC]*kA*kT) [compound 830126]” was tested. Which “% Inhibition” value did it give?
**A.** 34%

**Q.** “830127 (antisense k[5mC]*k[5mC]*kT*d[5mC]*d[5mC]*dG*dA*dG*dG*d[5mC]*dA*d[5mC]*d[5mC]*kA*k[5mC]*kA) [compound 830127]” was tested. Which “% Inhibition” value did it give?
**A.** 62%

**Q.** How did the “% Inhibition” value turn out when “830129 (antisense k[5mC]*kA*k[5mC]*d[5mC]*dT*d[5mC]*d[5mC]*dG*dA*dG*dG*d[5mC]*dA*k[5mC]*k[5mC]*kA) [compound 830129]” was run?
**A.** 41%

**Q.** With “830130 (antisense k[5mC]*k[5mC]*kA*d[5mC]*d[5mC]*dT*d[5mC]*d[5mC]*dG*dA*dG*dG*d[5mC]*kA*k[5mC]*k[5mC]) [compound 830130]” as the substance, how does the “% Inhibition” value read?
**A.** 32%

**Q.** With “830132 (antisense kT*kA*k[5mC]*d[5mC]*d[5mC]*dG*d[5mC]*d[5mC]*d[5mC]*dA*d[5mC]*dT*d[5mC]*k[5mC]*k[5mC]*k[5mC]) [compound 830132]” as the substance, how does the “% Inhibition” value read?
**A.** 8%

**Q.** How did the “% Inhibition” value turn out when “830133 (antisense kA*k[5mC]*kA*dA*dT*d[5mC]*dT*d[5mC]*d[5mC]*dT*dG*dG*dA*kA*kG*k[5mC]) [compound 830133]” was run?
**A.** 26%

**Q.** With “830134 (antisense kA*kG*kT*dA*d[5mC]*dA*dA*dT*d[5mC]*dT*d[5mC]*d[5mC]*dT*kG*kG*kA) [compound 830134]” as the substance, how does the “% Inhibition” value read?
**A.** 61%

**Q.** With “830136 (antisense kG*kA*kA*dA*dG*dT*dA*d[5mC]*dA*dA*dT*d[5mC]*dT*k[5mC]*k[5mC]*kT) [compound 830136]” as the substance, how does the “% Inhibition” value read?
**A.** 64%

**Q.** “830139 (antisense kT*kG*kG*dA*dG*dT*dT*dG*d[5mC]*dA*dT*dG*d[5mC]*k[5mC]*kT*kT) [compound 830139]” was tested. Which “% Inhibition” value did it give?
**A.** 45%

**Q.** For “830140 (antisense kT*k[5mC]*k[5mC]*dT*dA*dA*dG*d[5mC]*dT*dA*d[5mC]*dT*dT*kG*kG*kT) [compound 830140]”, which “% Inhibition” value is on record?
**A.** 12%

**Q.** Which “% Inhibition” value does the source give for “830141 (antisense kG*kG*k[5mC]*dA*dT*dT*dA*dG*dA*dG*dA*d[5mC]*d[5mC]*kT*k[5mC]*kA) [compound 830141]” here?
**A.** 58%

**Q.** For “830143 (antisense kG*kG*kT*dG*dT*dG*d[5mC]*dA*d[5mC]*d[5mC]*dA*dG*dG*kT*kG*kA) [compound 830143]”, which “% Inhibition” value is on record?
**A.** 62%

**Q.** Which “% Inhibition” value does the source give for “830145 (antisense kT*kG*kG*dG*dT*dG*dT*dG*d[5mC]*dA*d[5mC]*d[5mC]*dA*kG*kG*kT) [compound 830145]” here?
**A.** 47%

**Q.** Which “% Inhibition” value does the source give for “830146 (antisense kT*kG*kG*dT*d[5mC]*dT*dT*d[5mC]*dA*d[5mC]*d[5mC]*dA*dG*kG*kG*kT) [compound 830146]” here?
**A.** 62%

**Q.** For “830147 (antisense kG*kA*k[5mC]*dT*dG*dG*dT*d[5mC]*dT*dT*d[5mC]*dA*d[5mC]*k[5mC]*kA*kG) [compound 830147]”, which “% Inhibition” value is on record?
**A.** 0%

**Q.** “830148 (antisense kG*kG*kA*d[5mC]*dT*dG*dG*dT*d[5mC]*dT*dT*d[5mC]*dA*k[5mC]*k[5mC]*kA) [compound 830148]” was tested. Which “% Inhibition” value did it give?
**A.** 19%

**Q.** For “830149 (antisense kA*kG*kG*dA*d[5mC]*dT*dG*dG*dT*d[5mC]*dT*dT*d[5mC]*kA*k[5mC]*k[5mC]) [compound 830149]”, which “% Inhibition” value is on record?
**A.** 47%

**Q.** For “830150 (antisense k[5mC]*kA*kG*dT*dG*dG*dT*dG*dA*d[5mC]*d[5mC]*dT*d[5mC]*k[5mC]*k[5mC]*kT) [compound 830150]”, which “% Inhibition” value is on record?
**A.** 51%

**Q.** Which “% Inhibition” value does the source give for “830151 (antisense kG*k[5mC]*k[5mC]*dA*dG*dT*dG*dG*dT*dG*dA*d[5mC]*d[5mC]*kT*k[5mC]*k[5mC]) [compound 830151]” here?
**A.** 45%

**Q.** With “830152 (antisense k[5mC]*k[5mC]*k[5mC]*dG*dG*dA*dG*dA*dG*dG*dA*dA*dG*k[5mC]*k[5mC]*kT) [compound 830152]” as the substance, how does the “% Inhibition” value read?
**A.** 23%

**Q.** How did the “% Inhibition” value turn out when “830153 (antisense kG*k[5mC]*k[5mC]*dT*d[5mC]*dA*dG*d[5mC]*dA*dG*dT*dT*dA*kA*kT*kA) [compound 830153]” was run?
**A.** 21%

**Q.** “830154 (antisense kG*kT*kG*d[5mC]*d[5mC]*dT*d[5mC]*dA*dG*d[5mC]*dA*dG*dT*kT*kA*kA) [compound 830154]” was tested. Which “% Inhibition” value did it give?
**A.** 48%
